According to patent US10702489B2, “Treatment of nervous system disorders using combinations of RXR agonists and thyroid hormones” (IO Therapeutics, Inc., priority 2015, dated 2020):
Entries after “also recorded” stand apart in the source; their conditions may differ.

Assays:
[1] = system: rat 6-OHDA induced Parkinson Disease (PD) model; assay: rat 6-OHDA induced Parkinson Disease model, paw placement (cylinder test); type: in vivo; details: day 24; IRX4204 10 mg/kg PO, T3 1.5 μg/kg and T4 9 μg/kg SC
Method: The paw placement (cylinder test) was used for assessment of the damage. This test assessed a rat's independent forelimb use to support the body against the walls of a cylindrical enclosure. The test took advantage of the animals' innate drive to explore a novel environment by standing on the hind limbs and leaning towards the enclosing walls.
To perform this test, rats were placed individually in a glass cylinder (21 cm diameter, 34 cm height) and wall exploration was recorded for 3 minutes. No habituation to the cylinder prior to recording was allowed.
The statistical analysis was performed as ratio between the intact and impaired legs (R/L ratio). The ratio was expressed as the values of intact right+both forelimbs divided by the values of impaired left +both forelimbs. A lower value of the ratio means greater healing of the 6-OHDA induced brain damage.
Once a week during three weeks (study days 10, 17 and 24), the animals were re-tested for their performance in the paw placement test.

[2] = system: early Parkinson's Disease subjects; assay: open-label clinical study in early Parkinson's Disease subjects; type: in vivo, human; details: for Change in TSH / Total Motor Change / Total UPDRS Change: 15 days
Method: An open-label, single site clinical study of early Parkinson's Disease subjects treated with IRX4204 was conducted to determine whether the preclinical promise of IRX4204 as a disease modifying agent for PD will translate to the clinical setting upon treatment of early PD patients with IRX4204 as determined by Unified Parkinson's Disease Rating Scale (UPDRS) measurements and safety assessments. The changes in UPDRS scores were correlated with circulating thyroxine levels.
Five subjects were recruited for each of the three dose levels. All fifteen subjects completed 15 days of dosing.
All subjects ([…]) completed 15 days of dosing and returned to the clinic at the end of 2 weeks (day 15-17) for UPDRS score determination and safety assessments including determination of plasma thyroxine (T4) levels. Percent changes in Total Motor scores, Total UPDRS scores and plasma T4 values were determined according to the following: […]

[3] = biological target: RXRγ (Homo sapiens, UniProt P48443)
Method: (§1) To determine whether a RXR agonist can mediate its effects via RXRα receptor homodimers, RXRβ receptor homodimers, RXRγ receptor homodimers, or any combination thereof, or the corresponding RAR/RXR heterodimers, receptor-mediated transactivation assays were performed. For transactivation assays assessing RXR homodimer signaling, CV-1 cells were transfected with 1) an expression construct including a full length RXRα, RXRβ, or RXRγ; and 2) a rCRBPII/RXRE-tk-Luc reporter construct that included RXR homodimer-specific RXRE/DR1 responsive element linked to a luciferase gene. For transactivation assays assessing RAR/RXR heterodimer signaling, CV-1 cells were transfected with 1) an expression construct comprising a fusion protein including an estrogen receptor (ER) DNA binding domain linked to the ligand binding domain of RARα, RARβ, or RARγ and 2) a ERE-tk-Luc reporter construct that included an estrogen receptor responsive element linked to a luciferase gene. […] Data are mean values±SE from five independent experiments.

[4] = biological target: T1, RXRα (Homo sapiens, UniProt P19793)
T1 sequence (P19793 1-462): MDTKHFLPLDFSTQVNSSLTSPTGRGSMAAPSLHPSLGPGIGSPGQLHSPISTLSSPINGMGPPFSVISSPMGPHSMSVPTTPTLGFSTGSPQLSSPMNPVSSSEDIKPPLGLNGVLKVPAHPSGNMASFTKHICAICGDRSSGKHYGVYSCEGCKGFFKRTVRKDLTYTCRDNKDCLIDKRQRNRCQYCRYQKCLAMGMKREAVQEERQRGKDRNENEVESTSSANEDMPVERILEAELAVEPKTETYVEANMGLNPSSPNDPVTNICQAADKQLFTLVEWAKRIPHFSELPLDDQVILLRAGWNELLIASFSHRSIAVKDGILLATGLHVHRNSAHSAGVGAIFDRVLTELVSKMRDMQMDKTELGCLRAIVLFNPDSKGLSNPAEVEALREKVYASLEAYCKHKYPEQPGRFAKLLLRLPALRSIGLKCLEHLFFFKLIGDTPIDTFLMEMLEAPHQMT
Method: as §1

[5] = system: C57BL/6J mice with cuprizone+rapamycin demyelination; assay: 12-week cuprizone/rapamycin demyelination model, 6 weeks of treatment; type: in vivo, mouse; details: 6 weeks of treatment after 12 weeks CR
Source text: All animals were sacrificed after 12 weeks of CR or after further 6 weeks of treatment to evaluate myelin in white matter (corpus callosum) and gray matter (hippocampus and cortex). In addition, the size of myelinated axons was quantified and the large myelinated axons were further assessed by 3D-electron microscopy (3D-EM). A total of 40 animals were included in the study, where all 40 animals received CR demyelination for 12 weeks. After demyelination, a subset (n=10) of animals are sacrificed to serve as controls to assess baseline demyelination. […] Floating brain sections are immunostained with myelin prolipid protein (PLP) to visualize and quantify myelin in gray matter, hippocampus (FIG. 16A) and cortex (FIG. 16B).

[6] = system: SJL mice with EAE; assay: EAE in SJL mice, PLP peptide; type: in vivo, mouse
Method: To determine whether a RXR agonist can attenuate multiple sclerosis, SJL mice were immunized to induce EAE by s.c. injection at the base of their spine with 200 μL of adjuvant containing 200 μg proteolipid proteins (139-151) (PLP peptide; Peptides International, Louisville, Ky.) and 400 μg of non-viable M. tuberculosis H37 desiccate emulsified in a mixture of incomplete Freund's adjuvant and PBS. Mice were also given 150 ng of pertussis toxin in PBS i.p. on the same day as PLP emulsion injection and 2 days later. […] Mice were scored using the scale described in Example 3.

[7] = system: C57BL/6J mice with cuprizone+rapamycin demyelination; type: in vivo
[8] = system: one year old rats, caudal cerebellar peduncle lesions; assay: focal ethidium bromide induced rat model of demyelination; type: in vivo; details: IRX4204 10 mg/kg/day oral, thyroxine 20 ng/g s.c., 14 days
Method: The experiment uses rats of relatively advanced age (1 year) since such rats undergo remyelination in a less efficient manner, thereby providing data that are more relevant to the clinical treatment of human patients with multiple sclerosis or other demyelination disorders.
Focal demyelination is induced in one year old rats (approximately 300 g in weight) by injecting stereotactically 5 μl of ethidium bromide solution (0.01% vol/vol in saline) in a bilateral manner into the caudal cerebellar peduncles (CCP). […] The rats are killed on day 24 post-ethidium bromide treatment for analysis of remyelination by quantitative polymerase chain reaction (qPCR) and microscopy.

[9] = 50 μg i.p. every other day from day 7, n=6

RXRγ, sequence (P48443 whole entry, the tested form may be a part): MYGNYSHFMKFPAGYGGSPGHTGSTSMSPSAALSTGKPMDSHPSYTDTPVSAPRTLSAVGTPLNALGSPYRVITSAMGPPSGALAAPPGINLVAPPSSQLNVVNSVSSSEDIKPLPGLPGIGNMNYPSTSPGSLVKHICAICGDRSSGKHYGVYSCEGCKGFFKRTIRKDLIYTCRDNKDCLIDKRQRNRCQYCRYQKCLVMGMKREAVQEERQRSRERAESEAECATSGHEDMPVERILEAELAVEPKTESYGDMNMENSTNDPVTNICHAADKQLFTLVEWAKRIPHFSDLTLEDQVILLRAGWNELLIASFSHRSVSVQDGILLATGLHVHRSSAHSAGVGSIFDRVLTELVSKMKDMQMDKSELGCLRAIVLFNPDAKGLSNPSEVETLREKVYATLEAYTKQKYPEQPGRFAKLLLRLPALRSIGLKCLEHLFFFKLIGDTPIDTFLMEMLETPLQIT

With `CC(/C=C/[C@@H]1C[C@]1(C)c1ccc2c(c1)C(C)(C)CCC2(C)C)=C\C(=O)O` [IRX4204, 3,7-dimethyl-6(S),7(S)-methano,7-[1,1,4,4-tetramethyl-1,2,3,4-tetrahydronaphth-7-yl]2(E),4(E) heptadienoic acid] the mean body weight [1] was 157.17±2.93%, the “Change in TSH” value ([2]; 5 mg/day) was −28.9% and the “Total Motor Change” value ([2]; 5 mg/day) was −31.4%. For the same compound, the “Total UPDRS Change” value ([2]; 5 mg/day) was −18.7%, the “Change in TSH” value ([2]; 10 mg/day) was −36.6% and the “Total UPDRS Change” value ([2]; 10 mg/day) was −13.6%. The “reduction in Total UPDRS scores” value ([2]; 20 mg/day) was 6.6%, the “reduction of plasma T4” value ([2]; 20 mg/day) was 98.8% and the “Change in TSH” value ([2]; 20 mg/day) was −98.8%. For the same compound, the “Total Motor Change” value ([2]; 20 mg/day) was −14.5%, the “Efficacy (% of 1 μM IRX4204) RXRγ” value [3] was 100 % of 1 μM IRX4204 and the “Efficacy (% of 1 μM IRX4204) RXRα” value ([4]; CV-1 cells) was 100 % of 1 μM IRX4204. The “more potent in activating RXR receptors rather than RAR receptors” value ([4]; RXR versus RAR receptors) was > 1,000 fold, the “size of myelinated axons in the corpus callosum” value [5] was “significantly increases; also recorded: shift in distribution to larger axon diameter” and the “Mean Maximum Score” value ([6]; 50 μg i.p. every other day from day 7) was 1.5 ± 1.4. For the same compound, the “Death from Disease” value [6, 9] was 0/6, the “Disease Incidence” value [6, 9] was 4/6 and the “symptoms of EAE (scores of disease severity)” value ([6]; 50 μg i.p. every other day, to day 14) was “significantly reduces the symptoms of EAE”. For the same compound, the terminal body weights ([7]; ANOVA, IRX4204 or vehicle groups) was “no significant difference”, the “number of SMI32 positive axonal ovoids in corpus callosum” value ([7]; IRX4204 10 mg/kg PO, T4 20 ng/g SQ, daily 6 weeks, versus Vehicle, 10 mg/kg) was “trend towards decreased number of axonal ovoids but was not statistically different from the Vehicle; also recorded: trend towards decrease in axonal ovoids, but it was statistically not different from vehicle” and the “microglial/macrophage activation (Iba1 staining) in corpus callosum” value ([7]; daily 6 weeks, versus vehicle) was “no difference”. The “decrease in T4 levels compared to vehicle control animals” value ([7]; terminal blood draw) was roughly 50%, the “Mbp expression (real-time qPCR of lesion samples)” value [8] was “increase” and the “Nkx2.2+ oligodendrocyte precursor cells (OPCs) in lesions” value [8] was “increased”. The “Pdgfra expression (real-time qPCR of lesion samples)” value [8] was “increase”, the “density of CC1+ differentiated oligodendrocytes in lesions” value [8] was “increased” and the “density of Olig2+ oligodendrocyte lineage cells in lesions” value [8] was “increased”. The “remyelinated axons (ultrastructural analyses of CCP lesions)” value [8] was “more remyelinated axons than vehicle treatment”.
